Experimental data as given in US6337091B1, “Matrix for controlled delivery of highly soluble pharmaceutical agents” (Temple University - of the Commonwealth System of Higher …, priority 1997, dated 2002).

Key:
[1] = Dissolution study of propranolol tablets in deionized water; assay type: physicochemical
Protocol: The dissolution study was performed in 1,000 ml deionized water at 37° C. and 100 rpm. Measurements were performed at wavelength 289 nm.

[2] = cited from earlier work
[3] = Dissolution study of diltiazem hydrochloride tablets, USP 23 apparatus II (paddle), deionized water; assay type: physicochemical
Protocol: The system was automated using an HP diode array UV spectrophotometer, 8452a with continuous sampling, using a peristaltic pump (HP flow control, 89092A) and Mckinet software (HP 89532K Multicell Kinetics Software) for data analysis. Measurements were performed at 238 nm. […] Fresh dissolution medium (5 mL), heated to 37° C., was added to the vessel to maintain constant volume. Each experimental ran (n=3) was done at least in duplicate. […]

[4] = cited from earlier work; remark: listed apart in the source

Row | Structure (SMILES) | correlation coefficient of release profile (linearity) ([1]; control) | correlation coefficient of release profile (linearity) ([1]; propranolol granulated/coated with gelatin, in binary polymeric matrix) | correlation coefficient of release profile (linearity) ([1]; propranolol granulated/coated with tragacanth, in binary polymeric matrix) | bioavailability ([2]; due to extensive variable first-pass metabolism) [%] | clearance from plasma ([2]; in vivo) | elimination half-life ([2]; in vivo) [h] | correlation coefficient of release profile (linearity) ([3]; absence of either gelatin or tragacanth) | correlation coefficient of release profile (linearity) ([3]; diltiazem granulated/coated with gelatin, in binary polymeric matrix) | correlation coefficient of release profile (linearity) ([3]; diltiazem granulated/coated with tragacanth, in binary polymeric matrix) | degradation product, HPLC analysis (USP 23 method) ([3]; entire dissolution period) | protein binding [4]
1 | CC(C)NCC(O)COc1cccc2ccccc12 (centres unmarked) [propranolol] | 0.927 | 0.994 | 0.989 |  |  |  |  |  |  |  | 
2 | COc1ccc([C@@H]2Sc3ccccc3N(CCN(C)C)C(=O)[C@@H]2OC(C)=O)cc1 [diltiazem, Diltiazem] |  |  |  | 30 to 60 | high clearance | 3 to 6 | 0.946 | 0.997 | 0.979 | no degradation product | greater than 90%
